Laboratory results published in article PMC3827198, “Characterisation of AmphiAmR11, an Amphioxus (Branchiostoma floridae) D2-Dopamine-Like G Protein-Coupled Receptor” (PLoS ONE, 2013).
Counter-ions that a name gives are not always drawn. Like-named read-outs stand apart in the source and are kept apart here.

What was measured:
AmphiAmR11 [1] = target: T1, AmphiAmR11 (Branchiostoma floridae, UniProt A0PF35); test: Inhibition of forskolin-stimulated cAMP levels in AmphiAmR11-expressing CHO-K1 cells (agonist mode); format: cell-based
T1 sequence (A0PF35 entry or part of it): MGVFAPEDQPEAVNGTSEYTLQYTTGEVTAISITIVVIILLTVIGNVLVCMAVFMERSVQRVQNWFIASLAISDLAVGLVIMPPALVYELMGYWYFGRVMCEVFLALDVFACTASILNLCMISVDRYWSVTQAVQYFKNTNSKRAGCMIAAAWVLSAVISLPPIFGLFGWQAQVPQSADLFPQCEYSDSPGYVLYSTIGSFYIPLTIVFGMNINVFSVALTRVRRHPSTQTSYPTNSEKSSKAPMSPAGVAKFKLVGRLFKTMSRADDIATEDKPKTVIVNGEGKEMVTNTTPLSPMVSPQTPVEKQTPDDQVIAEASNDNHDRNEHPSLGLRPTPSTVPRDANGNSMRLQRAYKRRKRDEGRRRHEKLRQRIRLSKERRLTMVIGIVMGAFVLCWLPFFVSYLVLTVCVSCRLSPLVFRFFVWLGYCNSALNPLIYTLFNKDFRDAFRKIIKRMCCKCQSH
Protocol: CHO-K1 cells were maintained in Ham’s F-12 nutrient media (Invitrogen Life Sciences) supplemented with 10% charcoal-stripped foetal bovine serum (CS-FBS) (Hyclone, Cramlington, UK), 50 U/μg penicillin/streptomycin and 4 mM L-glutamine (Invitrogen Life Sciences) in 5% CO2 at 37°C. Stably transfected cell lines were generated by the transfection of CHO-K1 cells using Lipofectamine (Invitrogen Life Sciences) as described previously [8, 9].
cAMP levels in stably transfected CHO-K1 cells were determined as described previously [8, 9, 21], except 100 µM isobutylmethylxanthine (IBMX) was used. cAMP levels are represented as a percentage of basal samples unless otherwise stated. Student’s T-test (two-tailed and unpaired) was used to test for significance. Unless otherwise stated, all data are shown as mean ± SEM. Each data point plotted was the mean of data obtained from at least three experiments. Within each experiment three separate replicate wells were analysed for each condition and the cAMP assays on each of the wells was carried out in duplicate.
Forskolin was used both to increase basal cAMP levels to make it easier to detect increases and decreases in cAMP levels in the same experiments and also to potentiate responses to agonists to more accurately determine their threshold effects [see 22]. A non-saturating 10 µM concentration of forskolin was used.
Figure 1 Effect of biogenic amines and synthetic agonists on forskolin-stimulated cAMP levels in AmphiAmR11-expressing CHO-K1 cells. Cells were pre-incubated with 100 µM IBMX for 20 min, followed by incubation with 10 µM forskolin and 100 µM IBMX in the presence of increasing concentrations of various biogenic amines (A) or synthetic agonists (B) for a further 20 min. Data are expressed as the mean ± SEM. n ≥ 3.

AmphiAmR11 [2] = target: T1, AmphiAmR11; test: ERK1/2 phosphorylation in AmphiAmR11-expressing CHO-K1 cells (Western blotting); format: cell-based
AmphiAmR11 [3] = target: T1, AmphiAmR11; test: cell-based; format: cell-based; conditions: pertussis toxin 200 ng/mL, 16 hours
[4] = test system: dopamine-induced ERK1/2 activation; test: Effect of pertussis toxin and signalling inhibitors on agonist-induced ERK1/2 activation in AmphiAmR11-expressing CHO-K1 cells; format: cell-based, Chinese hamster; conditions: for Effect of inhibitor on dopamine-induced ERK1/2 phosphorylation: 10 µM inhibitor, 5 minutes
Protocol: Phospho-extracellular signal-related kinase (Phospho-ERK) levels were determined essentially as described previously. Minor modifications have been described. ERK1/2 phosphorylation levels were quantified by densitometry. The developed films were scanned in and analysed using the software program, Aida. The data generated by Aida was then processed using Microsoft Excel. Values for the kinase expression and activity levels were defined as 100% in the control samples. Student’s T-test (two-tailed and unpaired) was used to test for significance.
Figure 5 Effect of pertussis toxin and signalling inhibitors on dopamine-induced ERK1/2 activation in AmphiAmR11-expressing CHO-K1 cells. For the pertussis toxin experiment, AmphiAmR11-expressing CHO-K1 cells were pre-incubated with pertussis toxin (200 ng/ml) for 16 hours prior to serum-starvation for 2 hours in the absence of the toxin. Cells were then stimulated for 5 mins with 10 nM dopamine (open bar) or F-12 Hams control (black bar). For all other inhibitors, AmphiAmR11-expressing CHO-K1 cells were serum starved for 2 hours including incubation with 10 µM inhibitor or F-12 Hams control for the final 20 (AG1296 and AG1478) or 30 (PP2, LY294002, Ro31-8220, U0126, U73122 and U73343) minutes. Cells were then stimulated for 5 minutes with 10 nM dopamine […] in the presence of the inhibitor. Basal measurement in the absence of dopamine and inhibitor (first black bar) and the dopamine-only response in the absence of inhibitor (first open bar) are shown. (A) Representative blots from three or four independent experiments. […] Data are expressed as the mean + SEM. n = 3 - 4. DA, dopamine; PTX, pertussis toxin; Ro, Ro 31-8220; LY, LY294002.
Figure S3. Time courses for the effect of dopamine and tyramine on ERK1/2 phosphorylation in AmphiAmR11-expressing CHO-K1 cells. (A and B) AmphiAmR11-expressing CHO-K1 cells were serum-starved for 2 hours, prior to stimulation with tyramine or dopamine at the specified concentration for the specified length of time. Equal quantities of cell lysates were separated by SDS-PAGE and analysed for pERK or tERK by Western blotting. (C and D): AmphiAmR11-expressing CHO-K1 cells were incubated with pertussis toxin (200 ng/mL) for 16 hours followed by stimulation as described for Figures A and B. (A to D) Representative blot for each condition from three to four independent experiments. (E) Summary of the quantified blots. Data are expressed as the mean ± SEM. n = 3-4. PTX, pertussis toxin; Min, minutes.

AmphiAmR11 [5] = target: T1, AmphiAmR11; test: Block of dopamine-induced ERK1/2 activation in AmphiAmR11-expressing CHO-K1 cells by antagonists; format: cell-based; conditions: 1 µM antagonist, 10 nM dopamine, 5 min
AmphiAmR11 [6] = target: T1, AmphiAmR11; test: Block of tyramine-induced inhibition of forskolin-stimulated cAMP levels in AmphiAmR11-expressing CHO-K1 cells; format: cell-based; conditions: varying concentrations of antagonist, 30 nM tyramine
[7] = 10 µM forskolin, 100 µM IBMX, 20 min, full concentration response curves, read-out: EC50 for decrease in forskolin-stimulated cAMP levels
[8] = 1 µM synthetic agonist, 5 min, dopamine as reference

Compound: Clc1cccc(Cl)c1N=C1NCCN1 [clonidine, clonidine hydrochloride]
- EC50 (AmphiAmR11 [1]): 623 nM
- Effect on ERK1/2 phosphorylation at 1 µM (AmphiAmR11 [2]): less effective than naphazoline, UK14,304 and quinpirole

Compound: pertussis toxin
- Effect of pertussis toxin treatment on amine-mediated decreases in forskolin-stimulated cAMP levels (AmphiAmR11 [3]): inhibit the amine-mediated decreases
- Effect of pertussis toxin on tyramine- and dopamine-induced ERK1/2 phosphorylation at multiple time points ([4]; pertussis toxin 200 ng/mL, 16 hours, 1 µM tyramine, 30 nM dopamine): abolished
- Effect of pertussis toxin on ERK1/2 response at 5 minutes of dopamine stimulation ([4]; pertussis toxin 200 ng/ml, 16 hours, 10 nM dopamine): abolished

Compound: COc1cc2ncnc(Nc3cccc(Cl)c3)c2cc1OC [AG1478, tyrphostin AG 1478]
- Effect of inhibitor on dopamine-induced ERK1/2 phosphorylation ([4]; 10 nM dopamine): neither inhibitor had a significant effect

Compound: CC(C)(C)n1nc(-c2ccc(Cl)cc2)c2c(N)ncnc21 [PP2, 3-(4-chlorophenyl) 1-(1,1-dimethylethyl)-1H-pyrazolo[3,4-d]pyrimidin-4-amine]
- Effect of inhibitor on dopamine-induced ERK1/2 phosphorylation ([4]; 10 nM dopamine): no effect

Compound: COc1cccc(OC)c1OCCNCC1COc2ccccc2O1 (stereo not drawn) [WB4101]
- Block of dopamine-induced ERK1/2 activation (AmphiAmR11 [5]): partial effect
- Decrease of forskolin-stimulated cAMP levels by antagonist in the absence of agonist (AmphiAmR11 [1]; 1 μM antagonist, 10 µM forskolin): could inhibit forskolin-stimulated cAMP levels
- EC50 (AmphiAmR11 [1]; [7]): 32 nM
- Agonist type at AmphiAmR11 (full or partial) (AmphiAmR11 [1]; cAMP assay): partial agonist
- Inhibition of forskolin-stimulated cAMP levels (maximal) (AmphiAmR11 [1]; concentration-response curves, absence of other agonist): approximately 75%
- Effect of antagonist on ERK1/2 phosphorylation in the absence of dopamine (AmphiAmR11 [2]; 1 μM antagonist): increase in ERK1/2 phosphorylation
- Blocking effect on tyramine-induced response at reduced antagonist concentrations (AmphiAmR11 [6]): small blocking effect

Compound: Oc1cc2c(cc1O)[C@@H](c1ccccc1)CNCC2 [SKF38393, R(+)-1-phenyl-2,3,4,5-tetrahydro-(^1H)-3-benzazepine-7,8-diol]
- EC50 (AmphiAmR11 [1]; [7]): 792 nM
- Effect on ERK1/2 phosphorylation at 1 µM (AmphiAmR11 [2]; [8]): less effective than naphazoline, UK14,304 and quinpirole

Compound: Br.C=CCN1CCc2c(cc(O)c(O)c2Cl)C(c2ccccc2)C1 (racemic) [6-Chloro-APB, (±)-6-chloro-7,8-dihydroxy-3-allyl-1-phenyl-2,3,4,5-tetrahydro-^1H-3-benzazepine hydrobromide]
- EC50 (AmphiAmR11 [1]; [7]): 2230 nM
- Effect on ERK1/2 phosphorylation at 1 µM (AmphiAmR11 [2]; [8]): less effective than naphazoline, UK14,304 and quinpirole

Compound: Cn1cc(C2=C(c3cn(CCCSC(=N)N)c4ccccc34)C(=O)NC2=O)c2ccccc21 [Ro 31-8220]
- Effect of inhibitor on dopamine-induced ERK1/2 phosphorylation ([4]; 10 nM dopamine): near basal levels

Compound: CC(C)NCC(O)c1ccc(O)c(O)c1 (racemic) [isoproterenol, (±)-isoproterenol hydrochloride]
- Effect on forskolin-stimulated cAMP levels at 1 µM (AmphiAmR11 [1]; 1 µM agonist, 10 µM forskolin, 100 µM IBMX, 20 min): little or no effect
- Effect on ERK1/2 phosphorylation at 1 µM (AmphiAmR11 [2]; [8]): little or no effect

Compound: N#CC(=C(N)Sc1ccccc1N)C(C#N)=C(N)Sc1ccccc1N [U0126, 1,4-Diamino-2,3-dicyano-1,4-bis(o-aminophenylmercapto)butadiene]
- Effect of inhibitor on dopamine-induced ERK1/2 phosphorylation ([4]; 10 nM dopamine): abolished

Compound: Brc1c(NC2=NCCN2)ccc2nccnc12 [UK14,304, UK14304]
- EC50 (AmphiAmR11 [1]): 350 nM
- Effect on ERK1/2 phosphorylation at 1 µM (AmphiAmR11 [2]; [8]): most effective of the synthetic agonists
